Assay results from ChEMBL document CHEMBL1764991, “Epiafzelechin from the root bark of Cassia sieberiana: detection by DART mass spectrometry, spectroscopic characterization, and antioxidant properties” (J Nat Prod, 2011).
Values after ≈ are worked out from the molar mass of the structure shown.

Assays:
Liver [1] = test: Inhibition of H2O2-induced lipid peroxidation in rat liver homogenates assessed as malondialdehyde level at 32 ug/ml after 4 hrs; type: functional, tissue-based
[2] = test system: Radical scavenging activity; test: Antioxidant activity assessed as DPPH radical scavenging activity; type: functional
Liver [3] = test: Inhibition of H2O2-induced lipid peroxidation in rat liver homogenates assessed as malondialdehyde level after 4 hrs; type: functional, tissue-based
[4] = Antioxidant activity assessed as ferric ion reducing activity using fe3+-TPTZ at 80 ug/ml by FRAP assay; type: functional
[5] = Antioxidant activity assessed as ferric ion reducing activity using fe3+-TPTZ at 40 ug/ml by FRAP assay; type: functional
[6] = Antioxidant activity assessed as ferric ion reducing activity using fe3+-TPTZ at 20 ug/ml by FRAP assay; type: functional
Liver [7] = test: Inhibition of H2O2-induced lipid peroxidation in rat liver homogenates assessed as malondialdehyde level at 80 ug/ml after 4 hrs; type: functional, tissue-based

SMILES	inhibition (Liver [1])	IC50 [2]	Activity (Liver [3])	Activity [4]	Activity [5]	Activity [6]	inhibition (Liver [7])
O=c1c(O)c(-c2ccc(O)c(O)c2)oc2cc(O)cc(O)c12 [QUERCETIN]	75.4%	23.53 µg/mL (≈ 77.9 µM)	19.4 nM/ml	–	–	–	–
Oc1ccc([C@H]2Oc3cc(O)cc(O)c3C[C@H]2O)cc1 [EPIAFZELECHIN (2R,3R)(-)]	–	9.25 µg/mL (≈ 33.7 µM)	14.4 nM/ml	1510 µM/L	978 µM/L	493 µM/L	81.8%
